Results as given in patent US9546164B2 (GENENTECH, INC., priority 2013, dated 2017).
Where a name gives a salt, the structure may show the parent alone. Read-outs that look alike come from different tables or passages of the source.

Target: hNav1.7 (Homo sapiens (Human), UniProt Q15858)
Test: Tritiated sulfonamide competitive binding to membranes from cells expressing hNav1.7 and the β1 subunit;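 further: Filter-bound radioactivity counted by liquid scintillation, nonspecific binding defined with excess unlabelled ligand, IC50 fitted to percent inhibition of specific binding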
[1] = read-out: Ligand Binding Assay, 100 pM [3H]compound, membranes with hNav1.7 and β1 subunit, 18 h, room temperature

Sequence of hNav1.7 (Q15858 other isoform, or with tags, fused parts or gaps): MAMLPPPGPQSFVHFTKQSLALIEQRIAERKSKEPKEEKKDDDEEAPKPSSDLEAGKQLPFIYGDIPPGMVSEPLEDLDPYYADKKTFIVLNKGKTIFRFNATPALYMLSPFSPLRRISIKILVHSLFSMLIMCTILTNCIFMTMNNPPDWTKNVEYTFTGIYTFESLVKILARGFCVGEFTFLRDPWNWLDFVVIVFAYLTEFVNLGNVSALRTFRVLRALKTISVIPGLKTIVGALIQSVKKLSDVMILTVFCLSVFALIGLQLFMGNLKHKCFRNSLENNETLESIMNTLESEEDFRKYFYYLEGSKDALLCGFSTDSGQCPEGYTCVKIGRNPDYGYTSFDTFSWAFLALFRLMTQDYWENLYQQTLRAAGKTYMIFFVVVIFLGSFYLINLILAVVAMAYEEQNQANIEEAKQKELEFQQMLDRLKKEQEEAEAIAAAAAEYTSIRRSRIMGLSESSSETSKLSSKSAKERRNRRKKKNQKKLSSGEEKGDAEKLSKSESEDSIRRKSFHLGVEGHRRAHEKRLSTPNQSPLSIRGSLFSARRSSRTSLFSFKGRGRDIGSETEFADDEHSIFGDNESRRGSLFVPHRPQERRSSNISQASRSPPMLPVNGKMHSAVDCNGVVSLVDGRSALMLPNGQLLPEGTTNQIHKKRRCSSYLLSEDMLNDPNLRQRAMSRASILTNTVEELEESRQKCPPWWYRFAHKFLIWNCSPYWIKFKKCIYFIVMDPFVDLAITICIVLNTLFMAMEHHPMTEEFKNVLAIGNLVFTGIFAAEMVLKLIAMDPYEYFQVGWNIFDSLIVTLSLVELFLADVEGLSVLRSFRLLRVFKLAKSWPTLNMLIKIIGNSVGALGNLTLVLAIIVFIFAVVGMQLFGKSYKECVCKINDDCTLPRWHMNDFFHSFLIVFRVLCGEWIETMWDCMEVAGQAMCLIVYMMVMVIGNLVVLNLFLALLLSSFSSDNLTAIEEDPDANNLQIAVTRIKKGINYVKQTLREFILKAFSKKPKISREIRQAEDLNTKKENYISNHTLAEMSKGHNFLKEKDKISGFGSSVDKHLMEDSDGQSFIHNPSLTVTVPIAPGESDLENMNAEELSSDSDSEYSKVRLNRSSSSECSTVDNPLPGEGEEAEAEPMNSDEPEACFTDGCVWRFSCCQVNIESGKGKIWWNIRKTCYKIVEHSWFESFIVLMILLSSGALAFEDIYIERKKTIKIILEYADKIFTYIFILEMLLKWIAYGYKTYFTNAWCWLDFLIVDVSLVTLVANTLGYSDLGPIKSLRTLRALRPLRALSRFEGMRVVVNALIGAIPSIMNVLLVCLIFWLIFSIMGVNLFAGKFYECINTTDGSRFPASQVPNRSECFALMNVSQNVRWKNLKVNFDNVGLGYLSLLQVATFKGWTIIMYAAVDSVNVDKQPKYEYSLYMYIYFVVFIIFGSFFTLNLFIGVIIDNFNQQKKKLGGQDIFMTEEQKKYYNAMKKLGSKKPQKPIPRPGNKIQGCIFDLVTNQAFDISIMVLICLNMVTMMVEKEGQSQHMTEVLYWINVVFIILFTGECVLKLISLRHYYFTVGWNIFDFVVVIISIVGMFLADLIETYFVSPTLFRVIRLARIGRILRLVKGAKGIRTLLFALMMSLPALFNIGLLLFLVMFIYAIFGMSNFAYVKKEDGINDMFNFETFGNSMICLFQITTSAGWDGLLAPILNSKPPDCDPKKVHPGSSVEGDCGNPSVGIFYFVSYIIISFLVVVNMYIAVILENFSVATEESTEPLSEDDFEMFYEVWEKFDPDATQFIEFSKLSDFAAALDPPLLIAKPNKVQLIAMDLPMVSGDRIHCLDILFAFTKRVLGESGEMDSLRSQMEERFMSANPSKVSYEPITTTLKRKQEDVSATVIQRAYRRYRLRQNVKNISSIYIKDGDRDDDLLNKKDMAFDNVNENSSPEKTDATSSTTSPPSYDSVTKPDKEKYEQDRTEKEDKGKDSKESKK
Sequence of hNav1.7 (Q07699 19-218 partner): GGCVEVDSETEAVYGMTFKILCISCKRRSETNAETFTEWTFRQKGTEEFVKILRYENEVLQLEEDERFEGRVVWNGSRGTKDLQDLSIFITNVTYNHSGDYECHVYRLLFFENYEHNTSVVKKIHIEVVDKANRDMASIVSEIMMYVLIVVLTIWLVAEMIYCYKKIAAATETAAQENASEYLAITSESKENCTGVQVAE

Row | IC50 [1] [nM] | IC50 [nM] | Compound
1 | 3600 |  | CS(=O)(=O)NC(=O)c1cc(C2CC2)c(OCC2CN(Cc3ccccc3)C2)cc1F [Example 74, -((1-benzylazetidin-3-yl)methoxy)-5-cyclopropyl-2-fluoro-N-(methylsulfonyl)benzamide]
2 | 11.2 |  | CS(=O)(=O)NC(=O)c1cc(C2CC2)c(OCC2CCN(Cc3ccc(Cl)c(F)c3)CC2)cc1F [Example 138, 4-((1-(4-Chloro-3-fluorobenzyl)piperidin-4-yl)methoxy)-5-cyclopropyl-2-fluoro-N-(methylsulfonyl)benzamide]
3 | 2.7 |  | CC[C@@H](c1cc(Cl)cc(Cl)c1)N1CCC(COc2cc(F)c(C(=O)NS(C)(=O)=O)cc2C2CC2)CC1 [Example 241, (S)-5-cyclopropyl-4-((1-(1-(3,5-dichlorophenyl)propyl)piperidin-4-yl)methoxy)-2-fluoro-N-(methylsulfonyl)benzamide]
4 | 2.1 |  | CC1(COc2cc(F)c(C(=O)NS(C)(=O)=O)cc2C2CC2)CCN(c2cc(C(F)(F)F)c(Cl)cn2)CC1 [Example 556, 4-((1-(5-chloro-4-(trifluoromethyl)pyridin-2-yl)-4-methylpiperidin-4-yl)methoxy)-5-cyclopropyl-2-fluoro-N-(methylsulfonyl)benzamide]
5 | 1060 |  | CS(=O)(=O)NC(=O)c1cc(C2CC2)c(OCC2CN([C@@H](c3ccccc3)c3ccc(S(C)(=O)=O)cc3)C2)cc1F [Example 95, (S)-5-Cyclopropyl-2-fluoro-N-(methylsulfonyl)-4-((1-((4-(methylsulfonyl)phenyl)(phenyl)methyl)azetidin-3-yl)methoxy)benzamide]
6 | 3.7 |  | C[C@H](c1cc(Cl)cc(Cl)c1)N1CCC(COc2cc(F)c(C(=O)NS(=O)(=O)N3CCC3)cc2C2CC2)CC1 (single isomer, unassigned) [Example 271]
7 | 1.5 |  | CS(=O)(=O)NC(=O)c1cc(C2CC2)c(OCC2CCN(C(c3ccccc3)c3cc(Cl)cc(Cl)c3)CC2)cc1F (stereo not shown) [Example 412, 5-cyclopropyl-4-((1-((3,5-dichlorophenyl)(phenyl)methyl)piperidin-4-yl)methoxy)-2-fluoro-N-(methylsulfonyl)benzamide, trifluoroacetic acid salt]
8 | 2.9 |  | C[C@H]1CC[C@@H](Oc2cc(F)c(C(=O)NS(=O)(=O)C3CC3)cc2C2CC2)CN1Cc1ccc(F)cc1Cl [Example 326, 4-(((3R,6S)-1-(2-chloro-4-fluorobenzyl)-6-methylpiperidin-3-yl)oxy)-5-cyclopropyl-N-(cyclopropylsulfonyl)-2-fluorobenzamide]
9 |  | 1490 | CS(=O)(=O)NC(=O)c1cc(C2CC2)c(O[C@@H]2CCCN(Cc3ccnnc3)C2)cc1F [Example 13, (R)-5-cyclopropyl-2-fluoro-N-(methylsulfonyl)-4-((1-(pyridazin-4-ylmethyl)piperidin-3-yl)oxy)benzamide]
10 | 107 |  | CS(=O)(=O)NC(=O)c1cc(C2CC2)c(O[C@H]2CCCN(Cc3ccc(F)cc3Cl)C2)cc1F [Example 573, (S)-4-((1-(2-chloro-4-fluorobenzyl)piperidin-3-yl)oxy)-5-cyclopropyl-2-fluoro-N-(methylsulfonyl)]
11 |  | 21.6 | C[C@@H]1CN(Cc2cc(F)c(C(=O)NS(=O)(=O)C3CC3)cc2C2CC2)CCN1[C@@H](C)c1cc(Cl)cc(Cl)c1 [Example 572, 5-cyclopropyl-N-(cyclopropylsulfonyl)-4-(((R)-4-((S)-1-(3,5-dichlorophenyl)ethyl)-3-methylpiperazin-1-yl)methyl)-2-fluorobenzamide]
12 |  | 8.2 | O=C(NS(=O)(=O)C1CC1)c1cc(C2CC2)c(CN2CCC(Oc3ccc(Cl)cc3Cl)CC2)cc1F [Example 547, 5-cyclopropyl-N-(cyclopropylsulfonyl)-4-((4-(2,4-dichlorophenoxy)piperidin-1-yl)methyl)-2-fluorobenzamide, trifluoroacetic acid salt]
13 | 46 |  | O=C(NS(=O)(=O)CCC(F)(F)F)c1cc(C2CC2)c(OCC2CN(C(c3ccccc3)c3ccccc3)C2)cc1F [Example 63, 4-((1-benzhydrylazetidin-3-yl)methoxy)-5-cyclopropyl-2-fluoro-N-((3,3,3-trifluoropropyl)sulfonyl)benzamide]
14 | 213 |  | CS(=O)(=O)NC(=O)c1cc(C2CC2)c(OC2CC3(C2)CN(Cc2ccc(F)cc2Cl)C3)cc1F [Example 320, 4-((2-(2-chloro-4-fluorobenzyl)-2-azaspiro[3.3]heptan-6-yl)oxy)-5-cyclopropyl-2-fluoro-N-(methylsulfonyl)benzamide, trifluoroacetic acid salt]
15 | 14 |  | CS(=O)(=O)NC(=O)c1cc(C2CC2)c(OCC2CCN(C(CF)c3cc(Cl)cc(Cl)c3)CC2)cc1F (stereo not shown) [Example 358, 5-cyclopropyl-4-((1-(1-(3,5-dichlorophenyl)-2-fluoroethyl)piperidin-4-yl)methoxy)-2-fluoro-N-(methylsulfonyl)benzamide, trifluoroacetic acid salt]
16 | 8.4 |  | C[C@@H]1CC[C@@H](COc2cc(F)c(C(=O)NS(C)(=O)=O)cc2C2CC2)CN1[C@H](C)c1cc(Cl)cc(Cl)c1 [Example 343, 5-cyclopropyl-4-(((3R,6R)-1-((R)-1-(3,5-dichlorophenyl)ethyl)-6-methylpiperidin-3-yl)methoxy)-2-fluoro-N-(methylsulfonyl)benzamide, trifluoroacetic acid salt]
17 | 35.2 |  | CS(=O)(=O)NC(=O)c1cc(C2CC2)c(OC[C@@H]2CCCN(Cc3ccc(F)cc3Cl)C2)cc1F [Example 332, (R)-4-((1-(2-chloro-4-fluorobenzyl)piperidin-3-yl)methoxy)-5-cyclopropyl-2-fluoro-N-(methylsulfonyl)benzamide]
18 | 2450 |  | CS(=O)(=O)NC(=O)c1cc(C2CC2)c(OCC2CCN(S(=O)(=O)C3CCOCC3)CC2)cc1F [Example 376, 5-cyclopropyl-2-fluoro-N-(methylsulfonyl)-4-((1-((tetrahydro-2H-pyran-4-yl)sulfonyl)piperidin-4-yl)methoxy)benzamide]
19 | 920 |  | O=C(NS(=O)(=O)N1CCC1)c1cc(C2CC2)c(O[C@@H]2CCN(Cc3ccccc3)C2)cc1F [Example 46, (R)—N-(azetidin-1-ylsulfonyl)-4-((1-benzylpyrrolidin-3-yl)oxy)-5-cyclopropyl-2-fluorobenzamide]
20 | 2.7 |  | CC1(COc2cc(F)c(C(=O)NS(=O)(=O)C3CC3)cc2C2CC2)CCN(c2cc(C(F)(F)F)c(Cl)cn2)CC1 [Example 557, 4-((1-(5-chloro-4-(trifluoromethyl)pyridin-2-yl)-4-methylpiperidin-4-yl)methoxy)-5-cyclopropyl-N-(cyclopropylsulfonyl)-2-fluorobenzamide]
21 | 25.7 |  | C[C@H](c1ccc(F)cc1Cl)N1C[C@H]2C[C@@H]1[C@H](Oc1cc(F)c(C(=O)NS(C)(=O)=O)cc1C1CC1)C2 [Example 451, 4-(((1R,4s,6R)-2-((R)-1-(2-chloro-4-fluorophenyl)ethyl)-2-azabicyclo[2.2.1]heptan-6-yl)oxy)-5-cyclopropyl-2-fluoro-N-(methylsulfonyl)benzamide, trifluoroacetic acid salt]
22 | 160 |  | COC[C@@H](c1ccccc1)N1CCC(COc2cc(F)c(C(=O)NS(C)(=O)=O)cc2C2CC2)CC1 [Example 222, (R)-5-cyclopropyl-2-fluoro-4-((1-(2-methoxy-1-phenylethyl)piperidin-4-yl)methoxy)-N-(methylsulfonyl)benzamide]
